Laboratory results from publication PMC5571359, “Screening the Medicines for Malaria Venture Pathogen Box across Multiple Pathogens Reclassifies Starting Points for Open-Source Drug Discovery” (Antimicrobial Agents and Chemotherapy, 2017).
Like-named read-outs stand apart in the source and are kept apart here.

How the values were obtained:
[1] = tested on: T. b. brucei 427 bloodstream trypanosomes; test: T. b. brucei resazurin viability assay; assay type: cell-based, Trypanosoma brucei brucei; settings: Trypanosoma brucei; reference compound set; IA = inactive at 20 μM; read-out: IC50 T. brucei brucei trypomastigotes
[2] = tested on: L. donovani MHOM/IN/80/DD8 intracellular amastigotes; test: Leishmania donovani intracellular amastigote assay in THP-1 cells; assay type: cell-based; settings: Leishmania donovani, reference compound set, IA = inactive at 20 μM
[3] = tested on: NF54-pfs16-LUC-GFP stage IV gametocytes; test: Plasmodium falciparum late stage gametocyte (LSG) image-based assay; assay type: cell-based; settings: Plasmodium falciparum, NF54, read-out: percent inhibition at the top screening dose, P. falciparum NF54 LSG
[4] = tested on: T. cruzi intracellular amastigotes; test: Intracellular anti-Trypanosoma cruzi image-based assay (amastigotes); assay type: cell-based; settings: Trypanosoma cruzi; reference compound set; IA = inactive at 16.4 μM; read-out: IC50 T. cruzi intracellular amastigotes
[5] = tested on: Plasmodium falciparum 3D7 asexual blood stage; test: microbe, parasite or virus in culture; settings: 3D7, read-out: IC50 P. falciparum 3D7 ABS
3T3 host cells = test: T. cruzi assay, activity against 3T3 host cells; assay type: cell-based; settings: reference compound set; IA = inactive at 16.4 μM
Outline: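 3T3 cells were seeded on collagen-coated plates, incubated 24 h at 37 °C, infected with T. cruzi at MOI 5:1, and washed free of extracellular parasites after a further 24 h. Following 48 h compound exposure, cells were fixed, stained with Hoechst 33342 and HCS CellMask Green, and imaged by high-content analysis.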

in vitro = settings: human

## CO[C@H]1/C=C/O[C@@]2(C)Oc3c(C)c(O)c4c(O)c(c(/C=N/N5CCN(C)CC5)c(O)c4c3C2=O)NC(=O)/C(C)=C\C=C\[C@H](C)[C@H](O)[C@@H](C)[C@@H](O)[C@@H](C)[C@H](OC(C)=O)[C@@H]1C [Rifampin, reference compound]
[1]
  IC50: > 20 µM
[2]; THP-1, read-out: IC50 L. donovani n = 1, first test
  IC50: > 20 µM
[2]; THP-1, read-out: IC50 L. donovani n = 2, second test
  IC50: > 20 µM
[3]
  inhibition at 20 µM: 78%
[4]
  IC50: > 16.4 µM
[5]
  IC50: 2.23 µM
3T3 host cells
  IC50: > 16.4 µM
In vitro
  IC50 at 72 h: > 20 µM
